Data on 10 molecules can be found in publication PMC5740485 (Biochemistry, 2017).

“And” between values parts separate entries of the source, which are not always exact repeats. Equal entries are not always repeated. “Also recorded” adds a separate entry of the source. Where two headings read alike, the source gives them in different places.

In test [1] the target is T1, E. coli dihydrofolate reductase (ecDHFR) (Escherichia coli, UniProt P0ABQ4).
T1 sequence (P0ABQ4 1-159): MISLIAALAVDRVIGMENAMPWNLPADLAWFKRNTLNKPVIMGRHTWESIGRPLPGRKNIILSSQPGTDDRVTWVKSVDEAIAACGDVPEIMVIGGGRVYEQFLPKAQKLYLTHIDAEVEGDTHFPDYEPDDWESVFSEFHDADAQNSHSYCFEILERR

The target of test [2] is T1, E. coli dihydrofolate reductase (ecDHFR). Nature of the test: biochemical. The settings on record: NMR.
Test [3] has the same target. Description: Isothermal titration calorimetry. The test is classed as binding. (Isothermal titration calorimetry measures the heat released or taken up as one component is titrated into another.)
Test [4] has the same target. Description: Steady state kinetics of ecDHFR inhibition. The test is classed as biochemical. As to conditions: for α value (cooperative inhibition by MFM and pABG): Dixon plots, DHF 7.5 μM, α > 1 = negative cooperativity; for Ki: 30 °C, pH 7.0; for mode of inhibition: versus DHF, Lineweaver-Burk plot.
Test [5] has the same target. The test is classed as binding. The settings on record: 0.1 mM ecDHFR; for ILOE signals with metformin (co-binding): 5 mM of each ligand (Fenbufen 2 mM), pH 6.8, 25 °C.
Test [6] deals with L. casei DHFR. The settings on record: cited from earlier work.
[7] abbreviates: Ki, Lineweaver-Burk slope vs inhibitor concentration, NADPH 70 μM.

By Kd is commonly meant the equilibrium constant for the complex coming apart. Usually Ki stands for a dissociation constant, usually derived from enzyme kinetics or from competition with a known ligand. A low value points to tighter binding.

As to `CN(C)C(=N)N=C(N)N` [Metformin], the “affinity relative to DAP (fold weaker)” value in test [1] (ecDHFR affinity for MFM versus DAP) is on record as ~ 20 fold. The Kd in test [2] (Ile5 resonance, no other ligand, pH 7.2 in D2O) is 14.8 mM and 15.9 mM; in test [2] (Ile50, 75 mM DMBP present), 7 ± 0.16 mM; in test [2] (Ile50′ (MFM-sensitive resonance), 50 mM pABG present), 6.89 ± 0.56 mM; in test [2] (Ile50′, 50 mM pABG and 2 mM NADP+ present), 5.27 ± 0.71 mM; in test [2] (Ile61′ (MFM-sensitive resonance), 50 mM pABG present) it was 5.36 ± 1.15 mM; in test [3] (mean Kd, stated as mean of NMR and ITC displacement studies), 17.9 mM. The molecule further gave a ΔH in test [3] (ITC competitive displacement by DHF, NADP+ present, initial fit with variable ΔH) of -1.1 ± 3.2 kcal/mol. For the same molecule, in test [4] (NADPH 70 μM), the “α value (cooperative inhibition by MFM and pABG)” value turned out to be 3.3 ± 1.3. In addition, the inhibition constant Ki in test [4] (setting [7]) came to 24 ± 7 mM; in test [4] (Ki, non-linear global fit of all the data (SAS), NADPH), 17.9 mM. Further, in test [4] (listed as MFM), the mode of inhibition result is recorded as “competitive binding; also recorded: competitive inhibition”.
As for `CC(C)c1ccc(C(=O)CCC(=O)O)cc1` [4-isopropyl, 3-(4-isopropylbenozyl)propionate], the “ILOE signals with metformin (co-binding)” value in test [5] is on record as “stronger ILOE signals”.
Turning to `COc1ccc(C(=O)NCC(=O)O)cc1OC` [3,4-Dimethoxyhippurate, 3,4-dimethoxyhippurate], the “ILOE signals with metformin (co-binding)” value in test [5] is “weak ILOE cross peaks”.
For `Cc1ccc(C(=O)CCC(=O)O)c(C)c1` [DMBP, 3-(2,4-dimethylbenzoyl)propionate], in test [1] (NMR serial titration, no other ligand), the Kd is 5.4 mM.
On to `O=C(O)CNC(=O)c1ccccc1` [hippurate, N-benzoylglycine], for which the “ILOE signals with metformin (co-binding)” value in test [5] was “neither transferred NOE nor ILOE MFM-hippurate cross peaks were observed”.
Still for that read-out and setting: the value for `Cc1cc(C(=O)CCC(=O)O)c(C)c(C)c1C` [2,3,4,5-tetramethyl, 3-(2,3,4,5-tetramethylbenozyl)propionate] was “stronger ILOE signals”.
Consider `[H]/N=C(/N)N/C(=N/[H])NCCc1ccccc1` [Phenformin, phenformin], for which the Kd was 0.188 ± 0.018 mM in test [3] (Kd, ITC direct titration, cofactor NADP+, pH 7.0, 25° C); 0.098 ± 0.007 mM in test [3] (Kd, ITC direct titration, cofactor NADPH, pH 7.0, 25° C); 0.716 ± 0.045 mM in test [3] (Kd, ITC direct titration, no cofactor, pH 7.0, 25° C). The molecule also registered a Ki in test [4] (setting [7]) of 0.17 ± 0.02 mM. The “inhibition constant relative to metformin (fold lower)” value in test [4] (phenformin Ki versus metformin Ki) is recorded as 100 fold. In addition, the mode of inhibition entry in test [4] is reported as “competitive inhibition”.
On to `Cc1ccc(C(=O)NCC(=O)O)cc1` [4-methylhippurate], for which the “ILOE signals with metformin (co-binding)” value in test [5] was “ILOE signals were obtained”.
Regarding `Nc1ccc(C(=O)N[C@@H](CCC(=O)O)C(=O)O)cc1` [pABG, p-aminobenzoyl-L-glutamate], the “Kd ratio in the absence and presence of NADPH” value in test [6] was 4.5. In test [5], the “ILOE signals with metformin (co-binding)” value is recorded as “ILOE signals connecting the MFM methyl resonances with the pABG aromatic resonances were present”. For the same molecule, the dissociation constant Kd was 7.64 ± 0.53 mM in test [1] (NMR, Ile50 resonance, no other ligand, pH 7.2 in D2O); 8.09 ± 0.52 mM in test [1] (NMR, Ile61 resonance, no other ligand, pH 7.2 in D2O); 8 ± 0.37 mM in test [1] (NMR, Ile94 resonance, no other ligand, pH 7.2 in D2O); 7.9 mM and 7.91 mM in test [1] (read-out: Kd (mean), mean of NMR values from Ile50, Ile61, Ile94). Further, the “α value (cooperative inhibition by MFM and pABG)” value in test [4] (NADPH 70 μM) is recorded as 3.3 ± 1.3. In test [4] (Kd (NMR, no cofactor) over Ki (NADPH present)), the Kd/Ki ratio worked out at 4.4. Also, the inhibition constant (Ki) in test [4] (Lineweaver-Burk slope vs inhibitor concentration, NADPH 70 μM) was 1.8 ± 0.3 mM; in test [4] (non-linear global fit of all the data (SAS), NADPH) it was 1.3 ± 0.2 mM.
As for `O=C(O)c1cc(-c2ccc(F)cc2F)ccc1O` [Diflunisal], the “transferred NOE signals” value in test [5] (screening buffer, 25 °C) is given as “transferred NOE signals consistent with binding”.
